Columns and labels:
Assay type in all cases: cell-based
IKZF2 = molecular target: T1, IKZF2 (Homo sapiens, UniProt Q96SW2+Q9UKS7); experiment: Western blot degradation of IKZF2 in hPBMC
T1 construct: endogenous in cells; host or cells: hPBMC
Procedure, shortened: (§1)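 Compound-treated hPBMC lysates were denatured in SDS loading buffer at 95° C for 5 minutes, run on SDS-PAGE and blotted to nitrocellulose. DC50 is the concentration giving band grayscale half that of DMSO controls, from a fitted concentration-response curve; remaining protein is band intensity normalized to an internal control protein.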

GSPT1 = molecular target: T2, GSPT1 (Homo sapiens, UniProt P15170+Q96SW2); experiment: Western blot degradation of GSPT1 in hPBMC
T2 construct: endogenous in cells; host or cells: hPBMC
T2 sequence (P15170 whole entry): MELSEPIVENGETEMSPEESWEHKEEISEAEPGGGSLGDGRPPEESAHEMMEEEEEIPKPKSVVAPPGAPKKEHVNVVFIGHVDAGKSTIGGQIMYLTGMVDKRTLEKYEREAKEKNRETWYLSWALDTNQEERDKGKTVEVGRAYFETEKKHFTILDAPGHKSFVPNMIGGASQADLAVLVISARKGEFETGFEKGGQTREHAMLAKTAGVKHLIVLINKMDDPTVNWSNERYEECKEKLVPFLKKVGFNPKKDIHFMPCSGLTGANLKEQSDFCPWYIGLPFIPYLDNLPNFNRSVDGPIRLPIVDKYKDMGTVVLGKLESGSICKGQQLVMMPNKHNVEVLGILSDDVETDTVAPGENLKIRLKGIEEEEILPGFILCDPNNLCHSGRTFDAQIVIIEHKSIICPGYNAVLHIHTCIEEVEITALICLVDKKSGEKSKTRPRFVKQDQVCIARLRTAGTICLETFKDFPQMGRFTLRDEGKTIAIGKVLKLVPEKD
T2 sequence (Q96SW2 whole entry): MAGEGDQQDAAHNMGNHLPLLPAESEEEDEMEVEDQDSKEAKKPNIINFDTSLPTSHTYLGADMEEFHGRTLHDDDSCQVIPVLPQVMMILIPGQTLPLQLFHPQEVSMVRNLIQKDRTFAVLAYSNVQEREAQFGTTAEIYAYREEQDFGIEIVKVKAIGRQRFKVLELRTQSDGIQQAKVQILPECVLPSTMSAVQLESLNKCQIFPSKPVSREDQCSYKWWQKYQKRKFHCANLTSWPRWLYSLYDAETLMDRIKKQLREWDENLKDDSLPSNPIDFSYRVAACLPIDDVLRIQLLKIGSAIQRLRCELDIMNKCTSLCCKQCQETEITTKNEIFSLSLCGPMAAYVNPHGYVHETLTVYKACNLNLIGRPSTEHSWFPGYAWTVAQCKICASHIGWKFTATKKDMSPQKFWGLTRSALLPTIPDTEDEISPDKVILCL
T2 sequence (Q16531 whole entry partner): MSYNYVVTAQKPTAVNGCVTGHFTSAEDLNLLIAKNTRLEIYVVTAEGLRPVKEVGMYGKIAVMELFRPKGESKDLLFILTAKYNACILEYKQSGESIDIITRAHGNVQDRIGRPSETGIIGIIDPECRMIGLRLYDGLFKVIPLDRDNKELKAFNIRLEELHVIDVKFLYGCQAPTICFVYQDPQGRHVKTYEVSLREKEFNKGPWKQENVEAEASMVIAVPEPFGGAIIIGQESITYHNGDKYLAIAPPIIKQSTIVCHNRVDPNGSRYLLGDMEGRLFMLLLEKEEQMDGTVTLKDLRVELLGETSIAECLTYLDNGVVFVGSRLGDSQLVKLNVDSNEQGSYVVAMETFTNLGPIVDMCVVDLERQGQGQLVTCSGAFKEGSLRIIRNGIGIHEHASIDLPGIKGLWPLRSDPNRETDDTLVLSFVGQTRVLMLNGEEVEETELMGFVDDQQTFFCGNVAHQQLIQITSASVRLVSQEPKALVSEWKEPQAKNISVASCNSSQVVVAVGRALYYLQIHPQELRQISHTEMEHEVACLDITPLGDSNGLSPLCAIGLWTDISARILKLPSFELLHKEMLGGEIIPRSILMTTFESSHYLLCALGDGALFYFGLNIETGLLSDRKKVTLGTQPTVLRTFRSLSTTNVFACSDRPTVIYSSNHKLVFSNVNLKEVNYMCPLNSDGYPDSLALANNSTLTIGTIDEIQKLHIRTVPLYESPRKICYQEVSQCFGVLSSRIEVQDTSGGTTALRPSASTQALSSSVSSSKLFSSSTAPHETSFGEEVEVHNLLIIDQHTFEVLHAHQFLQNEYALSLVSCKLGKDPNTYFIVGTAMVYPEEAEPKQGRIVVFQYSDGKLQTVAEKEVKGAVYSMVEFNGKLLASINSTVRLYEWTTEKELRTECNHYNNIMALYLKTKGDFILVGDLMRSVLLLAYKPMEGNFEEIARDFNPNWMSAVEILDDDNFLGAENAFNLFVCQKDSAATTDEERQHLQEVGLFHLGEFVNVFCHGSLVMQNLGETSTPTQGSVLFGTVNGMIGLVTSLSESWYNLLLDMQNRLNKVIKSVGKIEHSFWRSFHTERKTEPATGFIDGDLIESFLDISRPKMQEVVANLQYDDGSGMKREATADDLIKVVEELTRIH
Procedure, shortened: as §1

IKZF3 = molecular target: T3, IKZF3 (Homo sapiens, UniProt Q96SW2+Q9UKT9); experiment: Western blot degradation of IKZF3 in hPBMC
T3 construct: endogenous in cells; host or cells: hPBMC
T3 sequence (Q9UKT9 whole entry): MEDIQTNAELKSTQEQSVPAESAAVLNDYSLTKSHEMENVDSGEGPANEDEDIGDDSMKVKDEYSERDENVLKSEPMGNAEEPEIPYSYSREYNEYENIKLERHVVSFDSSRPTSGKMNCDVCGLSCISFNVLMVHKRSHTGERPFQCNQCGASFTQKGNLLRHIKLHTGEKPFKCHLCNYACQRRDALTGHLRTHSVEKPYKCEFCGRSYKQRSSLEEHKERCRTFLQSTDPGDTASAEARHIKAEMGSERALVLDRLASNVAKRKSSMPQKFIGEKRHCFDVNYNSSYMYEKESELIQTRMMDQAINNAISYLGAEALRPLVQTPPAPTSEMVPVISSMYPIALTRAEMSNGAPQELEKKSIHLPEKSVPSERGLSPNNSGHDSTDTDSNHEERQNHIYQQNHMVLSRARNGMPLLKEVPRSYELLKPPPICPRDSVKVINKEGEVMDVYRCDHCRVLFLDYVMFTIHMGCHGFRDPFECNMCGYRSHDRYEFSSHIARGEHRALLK
T3 sequence (Q96SW2 whole entry): as the sequence (Q96SW2 whole entry) above
T3 sequence (Q16531 whole entry partner): as the sequence (Q16531 whole entry partner) above
Procedure, shortened: as §1

IKZF1 = molecular target: T4, IKZF1 (Homo sapiens, UniProt Q13422+Q96SW2); experiment: Western blot degradation of IKZF1 in hPBMC
T4 construct: endogenous in cells; host or cells: hPBMC
T4 sequence (Q13422 whole entry): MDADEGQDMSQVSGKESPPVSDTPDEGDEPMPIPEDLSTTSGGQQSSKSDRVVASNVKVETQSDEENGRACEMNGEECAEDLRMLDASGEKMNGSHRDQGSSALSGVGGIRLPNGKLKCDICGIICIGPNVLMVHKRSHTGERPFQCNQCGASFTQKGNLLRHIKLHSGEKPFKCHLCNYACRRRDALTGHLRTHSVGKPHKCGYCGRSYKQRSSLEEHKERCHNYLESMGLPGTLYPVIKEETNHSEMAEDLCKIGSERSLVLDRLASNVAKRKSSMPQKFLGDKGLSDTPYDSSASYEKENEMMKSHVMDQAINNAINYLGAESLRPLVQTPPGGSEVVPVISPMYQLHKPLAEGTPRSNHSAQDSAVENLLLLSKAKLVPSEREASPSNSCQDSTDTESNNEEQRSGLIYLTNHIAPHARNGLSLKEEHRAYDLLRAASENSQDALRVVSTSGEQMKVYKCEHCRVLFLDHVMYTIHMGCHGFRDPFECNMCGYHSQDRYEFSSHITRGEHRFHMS
T4 sequence (Q96SW2 whole entry): as the sequence (Q96SW2 whole entry) above
T4 sequence (Q16531 whole entry partner): as the sequence (Q16531 whole entry partner) above
Procedure, shortened: as §1

CK1a = molecular target: T5, CK1a (Homo sapiens, UniProt P48729+Q96SW2); experiment: Western blot degradation of CK1a in hPBMC
T5 construct: endogenous in cells; host or cells: hPBMC
T5 sequence (P48729 whole entry): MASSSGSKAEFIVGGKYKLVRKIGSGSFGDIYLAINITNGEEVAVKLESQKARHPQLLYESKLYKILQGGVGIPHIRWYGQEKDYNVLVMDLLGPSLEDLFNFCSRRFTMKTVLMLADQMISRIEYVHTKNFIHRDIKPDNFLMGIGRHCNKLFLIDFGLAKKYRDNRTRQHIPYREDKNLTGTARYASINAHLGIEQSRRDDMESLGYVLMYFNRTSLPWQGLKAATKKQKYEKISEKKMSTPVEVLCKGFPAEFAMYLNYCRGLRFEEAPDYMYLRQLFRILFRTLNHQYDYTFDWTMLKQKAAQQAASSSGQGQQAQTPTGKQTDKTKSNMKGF
T5 sequence (Q96SW2 whole entry): as the sequence (Q96SW2 whole entry) above
T5 sequence (Q16531 whole entry partner): as the sequence (Q16531 whole entry partner) above
Procedure, shortened: as §1

WEE1 = molecular target: T6, WEE1 (Homo sapiens, UniProt P30291+Q96SW2); experiment: Western blot degradation of WEE1 in hPBMC
T6 construct: endogenous in cells; host or cells: hPBMC
Procedure, shortened: as §1

T1 sequence (Q9UKS7 whole entry): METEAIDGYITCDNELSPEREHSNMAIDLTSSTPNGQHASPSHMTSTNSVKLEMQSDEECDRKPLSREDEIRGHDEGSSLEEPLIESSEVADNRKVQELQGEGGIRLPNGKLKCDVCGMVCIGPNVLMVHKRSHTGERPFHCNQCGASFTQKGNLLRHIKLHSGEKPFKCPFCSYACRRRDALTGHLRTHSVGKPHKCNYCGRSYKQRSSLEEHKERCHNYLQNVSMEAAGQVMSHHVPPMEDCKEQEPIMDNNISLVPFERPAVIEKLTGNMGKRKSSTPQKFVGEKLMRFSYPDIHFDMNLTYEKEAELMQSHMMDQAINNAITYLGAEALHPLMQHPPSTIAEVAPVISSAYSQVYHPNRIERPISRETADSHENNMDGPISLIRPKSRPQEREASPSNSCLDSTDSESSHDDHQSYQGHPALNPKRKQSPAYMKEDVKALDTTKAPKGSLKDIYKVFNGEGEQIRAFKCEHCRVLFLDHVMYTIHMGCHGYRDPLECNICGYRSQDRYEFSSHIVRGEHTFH
T1 sequence (Q96SW2 whole entry): as the sequence (Q96SW2 whole entry) above
T1 sequence (Q16531 whole entry partner): as the sequence (Q16531 whole entry partner) above

Row | Compound | Degradation of substrate protein IKZF2 (substrate protein remaining %) (IKZF2) | Degradation of substrate protein GSPT1 (substrate protein remaining %) (GSPT1) | Degradation of substrate protein IKZF3 (substrate protein remaining %) (IKZF3) | Degradation of substrate protein IKZF1 (substrate protein remaining %) (IKZF1) | Degradation of substrate protein CK1a (substrate protein remaining %) (CK1a) | Degradation of substrate protein WEE1 (substrate protein remaining %) (WEE1)
1 | O=Cc1cccnc1NC1CCC(=O)NC1=O (stereo not drawn) [GT-07447, 2-((2,6-dioxopiperidin-3-yl)amino)nicotinaldehyde] | A (A is defined as 0% ≤ substrate protein remaining % ≤ 80%) | A (A is defined as 0% ≤ substrate protein remaining % ≤ 80%) | A (A is defined as 0% ≤ substrate protein remaining % ≤ 80%) | A (A is defined as 0% ≤ substrate protein remaining % ≤ 80%) | A (A is defined as 0% ≤ substrate protein remaining % ≤ 80%) | A (A is defined as 0% ≤ substrate protein remaining % ≤ 80%)
2 | O=C1CCC(Nc2cncc(CO)c2)C(=O)N1 (stereo not drawn) [GT-07448, 3-((5-(hydroxymethyl)pyridin-3-yl)amino)piperidine-2,6-dione] | A (A is defined as 0% ≤ substrate protein remaining % ≤ 80%) | A (A is defined as 0% ≤ substrate protein remaining % ≤ 80%) | A (A is defined as 0% ≤ substrate protein remaining % ≤ 80%) | A (A is defined as 0% ≤ substrate protein remaining % ≤ 80%) | A (A is defined as 0% ≤ substrate protein remaining % ≤ 80%) | A (A is defined as 0% ≤ substrate protein remaining % ≤ 80%)
3 | CC(C)(C)[Si](C)(C)OCc1cncc(NC2CCC(=O)NC2=O)c1 (stereo not drawn) [GT-07449, 3-((5-(((tert-butyldimethylsilyl)oxy)methyl)pyridin-3-yl)amino)piperidine-2,6-dione] | A (A is defined as 0% ≤ substrate protein remaining % ≤ 80%) | B (B is defined as substrate protein remaining % > 80%) | B (B is defined as substrate protein remaining % > 80%) | B (B is defined as substrate protein remaining % > 80%) | B (B is defined as substrate protein remaining % > 80%) | B (B is defined as substrate protein remaining % > 80%)
4 | O=C1CCC(Nc2ccc(CO)cn2)C(=O)N1 (stereo not drawn) [GT-07551, 3-((5-(hydroxymethyl)pyridin-2-yl)amino)piperidine-2,6-dione] | A (A is defined as 0% ≤ substrate protein remaining % ≤ 80%) | B (B is defined as substrate protein remaining % > 80%) | B (B is defined as substrate protein remaining % > 80%) | B (B is defined as substrate protein remaining % > 80%) | B (B is defined as substrate protein remaining % > 80%) | A (A is defined as 0% ≤ substrate protein remaining % ≤ 80%)
5 | CC(C)(C)[Si](C)(C)OCc1ccc(NC2CCC(=O)NC2=O)nc1 (stereo not drawn) [GT-07552, 3-((5-(((tert-butyldimethylsilyl)oxy)methyl)pyridin-2-yl)amino)piperidine-2,6-dione] | A (A is defined as 0% ≤ substrate protein remaining % ≤ 80%) | B (B is defined as substrate protein remaining % > 80%) | B (B is defined as substrate protein remaining % > 80%) | B (B is defined as substrate protein remaining % > 80%) | B (B is defined as substrate protein remaining % > 80%) | B (B is defined as substrate protein remaining % > 80%)
6 | O=Cc1ccnc(NC2CCC(=O)NC2=O)c1 (stereo not drawn) [GT-07553, 2-((2,6-dioxopiperidin-3-yl)amino)isonicotinaldehyde] | A (A is defined as 0% ≤ substrate protein remaining % ≤ 80%) | B (B is defined as substrate protein remaining % > 80%) | B (B is defined as substrate protein remaining % > 80%) | A (A is defined as 0% ≤ substrate protein remaining % ≤ 80%) | B (B is defined as substrate protein remaining % > 80%) | A (A is defined as 0% ≤ substrate protein remaining % ≤ 80%)
7 | O=Cc1cncc(NC2CCC(=O)NC2=O)c1 (stereo not drawn) [GT-07554, 5-((2,6-dioxopiperidin-3-yl)amino)nicotinaldehyde] | A (A is defined as 0% ≤ substrate protein remaining % ≤ 80%) | B (B is defined as substrate protein remaining % > 80%) | A (A is defined as 0% ≤ substrate protein remaining % ≤ 80%) | A (A is defined as 0% ≤ substrate protein remaining % ≤ 80%) | A (A is defined as 0% ≤ substrate protein remaining % ≤ 80%) | A (A is defined as 0% ≤ substrate protein remaining % ≤ 80%)
8 | O=C1CCN(c2cnc(CO)c(F)c2)C(=O)N1 [GT-07555, 1-(5-fluoro-6-(hydroxymethyl)pyridin-3-yl)dihydropyrimidine-2,4(1H,3H)-dione] | A (A is defined as 0% ≤ substrate protein remaining % ≤ 80%) | A (A is defined as 0% ≤ substrate protein remaining % ≤ 80%) | A (A is defined as 0% ≤ substrate protein remaining % ≤ 80%) | A (A is defined as 0% ≤ substrate protein remaining % ≤ 80%) | A (A is defined as 0% ≤ substrate protein remaining % ≤ 80%) | A (A is defined as 0% ≤ substrate protein remaining % ≤ 80%)
9 | O=C1CCN(c2cnc(F)c(CO)c2)C(=O)N1 [GT-07556, 1-(6-fluoro-5-(hydroxymethyl)pyridin-3-yl)dihydropyrimidine-2,4(1H,3H)-dione] | B (B is defined as substrate protein remaining % > 80%) | B (B is defined as substrate protein remaining % > 80%) | A (A is defined as 0% ≤ substrate protein remaining % ≤ 80%) | A (A is defined as 0% ≤ substrate protein remaining % ≤ 80%) | A (A is defined as 0% ≤ substrate protein remaining % ≤ 80%) | A (A is defined as 0% ≤ substrate protein remaining % ≤ 80%)
10 | O=C1CCN(c2cnc(CCl)c(F)c2)C(=O)N1 [GT-07557, 1-(6-(chloromethyl)-5-fluoropyridin-3-yl)dihydropyrimidine-2,4(1H,3H)-dione] | B (B is defined as substrate protein remaining % > 80%) | B (B is defined as substrate protein remaining % > 80%) | B (B is defined as substrate protein remaining % > 80%) | A (A is defined as 0% ≤ substrate protein remaining % ≤ 80%) | A (A is defined as 0% ≤ substrate protein remaining % ≤ 80%) | A (A is defined as 0% ≤ substrate protein remaining % ≤ 80%)
11 | O=C1CCC(c2ccc(CO)nc2F)C(=O)N1 (stereo not drawn) [GT-07558, 3-(2-fluoro-6-(hydroxymethyl)pyridin-3-yl)piperidine-2,6-dione] | B (B is defined as substrate protein remaining % > 80%) | B (B is defined as substrate protein remaining % > 80%) | B (B is defined as substrate protein remaining % > 80%) | A (A is defined as 0% ≤ substrate protein remaining % ≤ 80%) | A (A is defined as 0% ≤ substrate protein remaining % ≤ 80%) | A (A is defined as 0% ≤ substrate protein remaining % ≤ 80%)
